According to article PMC6071250 (2018):

Experiments:
[1] = tested on: anti-AFT B1 aptamer (DNA, aptamer) GTTGGGCACGTGTTGTCTCTCTGTGTCTCGTGCCCTTCGCTAGGCCCACA; experiment: TIRE/LSPR spectral shift; details: 3 mM MgCl2, Na+ and K+ (HBB: 120 mM NaCl, 5 mM KCl; PBB: 137 mM NaCl, 2.7 mM KCl); HBB or PBB pH 7.4; stated not to bind; concentration tested not stated; immobilised aptamer
[2] = tested on: anti-AFT M1 aptamer (DNA, aptamer) ACTGCTAGAGATTTTCCACAT; experiment: TIRE/LSPR spectral shift; details: 3 mM MgCl2, Na+ and K+ (HBB: 120 mM NaCl, 5 mM KCl; PBB: 137 mM NaCl, 2.7 mM KCl); HBB or PBB pH 7.4; stated not to bind; concentration tested not stated; immobilised aptamer

- binding [1]: no
- binding [2]: no
Compound: C[C@@H]1Cc2c(Cl)cc(C(=O)N[C@@H](Cc3ccccc3)C(=O)O)c(O)c2C(=O)O1
